According to US10670605B2, “Cysteine reactive probes and uses thereof” (The Scripps Research Institute, priority 2015, dated 2020):

How the values were obtained:
Test in all cases: Competitive isoTOP-ABPP in situ (fragment-treated cells)
Assay type in all cases: cell-based
[1] = biological target: T1, cysteines in MDA-MB-231 and Ramos cells (Homo sapiens, UniProt Q96C19)
T1 sequence (Q96C19 1-240): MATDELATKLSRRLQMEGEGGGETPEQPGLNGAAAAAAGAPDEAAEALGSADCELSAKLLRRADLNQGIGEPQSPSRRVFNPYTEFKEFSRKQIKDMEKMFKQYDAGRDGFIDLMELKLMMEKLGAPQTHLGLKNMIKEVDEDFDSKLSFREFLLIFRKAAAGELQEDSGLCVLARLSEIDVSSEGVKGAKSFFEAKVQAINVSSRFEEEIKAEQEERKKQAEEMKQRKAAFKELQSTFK

[2] = biological target: cysteines in MDA-MB-231 and Ramos cells (Homo sapiens, UniProt Q5MNZ6)
Chain of cysteines in MDA-MB-231 and Ramos cells (Homo sapiens, UniProt Q5MNZ6) (Q5MNZ6 whole entry): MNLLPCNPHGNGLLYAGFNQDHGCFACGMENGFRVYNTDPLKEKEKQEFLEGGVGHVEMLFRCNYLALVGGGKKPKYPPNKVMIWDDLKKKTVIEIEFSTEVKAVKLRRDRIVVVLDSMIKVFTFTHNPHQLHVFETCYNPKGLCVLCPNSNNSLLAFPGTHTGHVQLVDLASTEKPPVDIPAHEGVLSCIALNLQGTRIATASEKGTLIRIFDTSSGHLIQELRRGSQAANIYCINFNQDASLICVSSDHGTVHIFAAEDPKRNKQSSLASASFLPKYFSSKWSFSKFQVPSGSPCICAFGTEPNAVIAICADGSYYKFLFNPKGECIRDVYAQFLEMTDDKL

[3] = biological target: T2, cysteines in MDA-MB-231 and Ramos cells (Homo sapiens, UniProt P09110)
T2 sequence (P09110 27-424): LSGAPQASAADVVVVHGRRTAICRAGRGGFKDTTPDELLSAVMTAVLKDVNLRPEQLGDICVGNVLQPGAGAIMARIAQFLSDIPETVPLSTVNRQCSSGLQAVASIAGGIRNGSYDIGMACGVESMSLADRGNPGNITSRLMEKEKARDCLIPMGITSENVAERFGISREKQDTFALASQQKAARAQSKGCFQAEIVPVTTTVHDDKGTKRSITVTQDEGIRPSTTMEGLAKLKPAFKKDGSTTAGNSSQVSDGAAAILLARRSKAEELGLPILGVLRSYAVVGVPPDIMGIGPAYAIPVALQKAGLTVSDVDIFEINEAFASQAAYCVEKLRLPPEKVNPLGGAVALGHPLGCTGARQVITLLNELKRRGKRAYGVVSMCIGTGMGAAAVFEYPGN

[4] = biological target: cysteines in MDA-MB-231 and Ramos cells (Homo sapiens, UniProt P35658)
[5] = biological target: cysteines in MDA-MB-231 and Ramos cells (Homo sapiens, UniProt Q15149)
Chain of cysteines in MDA-MB-231 and Ramos cells (Homo sapiens, UniProt Q15149) (Q15149 whole entry): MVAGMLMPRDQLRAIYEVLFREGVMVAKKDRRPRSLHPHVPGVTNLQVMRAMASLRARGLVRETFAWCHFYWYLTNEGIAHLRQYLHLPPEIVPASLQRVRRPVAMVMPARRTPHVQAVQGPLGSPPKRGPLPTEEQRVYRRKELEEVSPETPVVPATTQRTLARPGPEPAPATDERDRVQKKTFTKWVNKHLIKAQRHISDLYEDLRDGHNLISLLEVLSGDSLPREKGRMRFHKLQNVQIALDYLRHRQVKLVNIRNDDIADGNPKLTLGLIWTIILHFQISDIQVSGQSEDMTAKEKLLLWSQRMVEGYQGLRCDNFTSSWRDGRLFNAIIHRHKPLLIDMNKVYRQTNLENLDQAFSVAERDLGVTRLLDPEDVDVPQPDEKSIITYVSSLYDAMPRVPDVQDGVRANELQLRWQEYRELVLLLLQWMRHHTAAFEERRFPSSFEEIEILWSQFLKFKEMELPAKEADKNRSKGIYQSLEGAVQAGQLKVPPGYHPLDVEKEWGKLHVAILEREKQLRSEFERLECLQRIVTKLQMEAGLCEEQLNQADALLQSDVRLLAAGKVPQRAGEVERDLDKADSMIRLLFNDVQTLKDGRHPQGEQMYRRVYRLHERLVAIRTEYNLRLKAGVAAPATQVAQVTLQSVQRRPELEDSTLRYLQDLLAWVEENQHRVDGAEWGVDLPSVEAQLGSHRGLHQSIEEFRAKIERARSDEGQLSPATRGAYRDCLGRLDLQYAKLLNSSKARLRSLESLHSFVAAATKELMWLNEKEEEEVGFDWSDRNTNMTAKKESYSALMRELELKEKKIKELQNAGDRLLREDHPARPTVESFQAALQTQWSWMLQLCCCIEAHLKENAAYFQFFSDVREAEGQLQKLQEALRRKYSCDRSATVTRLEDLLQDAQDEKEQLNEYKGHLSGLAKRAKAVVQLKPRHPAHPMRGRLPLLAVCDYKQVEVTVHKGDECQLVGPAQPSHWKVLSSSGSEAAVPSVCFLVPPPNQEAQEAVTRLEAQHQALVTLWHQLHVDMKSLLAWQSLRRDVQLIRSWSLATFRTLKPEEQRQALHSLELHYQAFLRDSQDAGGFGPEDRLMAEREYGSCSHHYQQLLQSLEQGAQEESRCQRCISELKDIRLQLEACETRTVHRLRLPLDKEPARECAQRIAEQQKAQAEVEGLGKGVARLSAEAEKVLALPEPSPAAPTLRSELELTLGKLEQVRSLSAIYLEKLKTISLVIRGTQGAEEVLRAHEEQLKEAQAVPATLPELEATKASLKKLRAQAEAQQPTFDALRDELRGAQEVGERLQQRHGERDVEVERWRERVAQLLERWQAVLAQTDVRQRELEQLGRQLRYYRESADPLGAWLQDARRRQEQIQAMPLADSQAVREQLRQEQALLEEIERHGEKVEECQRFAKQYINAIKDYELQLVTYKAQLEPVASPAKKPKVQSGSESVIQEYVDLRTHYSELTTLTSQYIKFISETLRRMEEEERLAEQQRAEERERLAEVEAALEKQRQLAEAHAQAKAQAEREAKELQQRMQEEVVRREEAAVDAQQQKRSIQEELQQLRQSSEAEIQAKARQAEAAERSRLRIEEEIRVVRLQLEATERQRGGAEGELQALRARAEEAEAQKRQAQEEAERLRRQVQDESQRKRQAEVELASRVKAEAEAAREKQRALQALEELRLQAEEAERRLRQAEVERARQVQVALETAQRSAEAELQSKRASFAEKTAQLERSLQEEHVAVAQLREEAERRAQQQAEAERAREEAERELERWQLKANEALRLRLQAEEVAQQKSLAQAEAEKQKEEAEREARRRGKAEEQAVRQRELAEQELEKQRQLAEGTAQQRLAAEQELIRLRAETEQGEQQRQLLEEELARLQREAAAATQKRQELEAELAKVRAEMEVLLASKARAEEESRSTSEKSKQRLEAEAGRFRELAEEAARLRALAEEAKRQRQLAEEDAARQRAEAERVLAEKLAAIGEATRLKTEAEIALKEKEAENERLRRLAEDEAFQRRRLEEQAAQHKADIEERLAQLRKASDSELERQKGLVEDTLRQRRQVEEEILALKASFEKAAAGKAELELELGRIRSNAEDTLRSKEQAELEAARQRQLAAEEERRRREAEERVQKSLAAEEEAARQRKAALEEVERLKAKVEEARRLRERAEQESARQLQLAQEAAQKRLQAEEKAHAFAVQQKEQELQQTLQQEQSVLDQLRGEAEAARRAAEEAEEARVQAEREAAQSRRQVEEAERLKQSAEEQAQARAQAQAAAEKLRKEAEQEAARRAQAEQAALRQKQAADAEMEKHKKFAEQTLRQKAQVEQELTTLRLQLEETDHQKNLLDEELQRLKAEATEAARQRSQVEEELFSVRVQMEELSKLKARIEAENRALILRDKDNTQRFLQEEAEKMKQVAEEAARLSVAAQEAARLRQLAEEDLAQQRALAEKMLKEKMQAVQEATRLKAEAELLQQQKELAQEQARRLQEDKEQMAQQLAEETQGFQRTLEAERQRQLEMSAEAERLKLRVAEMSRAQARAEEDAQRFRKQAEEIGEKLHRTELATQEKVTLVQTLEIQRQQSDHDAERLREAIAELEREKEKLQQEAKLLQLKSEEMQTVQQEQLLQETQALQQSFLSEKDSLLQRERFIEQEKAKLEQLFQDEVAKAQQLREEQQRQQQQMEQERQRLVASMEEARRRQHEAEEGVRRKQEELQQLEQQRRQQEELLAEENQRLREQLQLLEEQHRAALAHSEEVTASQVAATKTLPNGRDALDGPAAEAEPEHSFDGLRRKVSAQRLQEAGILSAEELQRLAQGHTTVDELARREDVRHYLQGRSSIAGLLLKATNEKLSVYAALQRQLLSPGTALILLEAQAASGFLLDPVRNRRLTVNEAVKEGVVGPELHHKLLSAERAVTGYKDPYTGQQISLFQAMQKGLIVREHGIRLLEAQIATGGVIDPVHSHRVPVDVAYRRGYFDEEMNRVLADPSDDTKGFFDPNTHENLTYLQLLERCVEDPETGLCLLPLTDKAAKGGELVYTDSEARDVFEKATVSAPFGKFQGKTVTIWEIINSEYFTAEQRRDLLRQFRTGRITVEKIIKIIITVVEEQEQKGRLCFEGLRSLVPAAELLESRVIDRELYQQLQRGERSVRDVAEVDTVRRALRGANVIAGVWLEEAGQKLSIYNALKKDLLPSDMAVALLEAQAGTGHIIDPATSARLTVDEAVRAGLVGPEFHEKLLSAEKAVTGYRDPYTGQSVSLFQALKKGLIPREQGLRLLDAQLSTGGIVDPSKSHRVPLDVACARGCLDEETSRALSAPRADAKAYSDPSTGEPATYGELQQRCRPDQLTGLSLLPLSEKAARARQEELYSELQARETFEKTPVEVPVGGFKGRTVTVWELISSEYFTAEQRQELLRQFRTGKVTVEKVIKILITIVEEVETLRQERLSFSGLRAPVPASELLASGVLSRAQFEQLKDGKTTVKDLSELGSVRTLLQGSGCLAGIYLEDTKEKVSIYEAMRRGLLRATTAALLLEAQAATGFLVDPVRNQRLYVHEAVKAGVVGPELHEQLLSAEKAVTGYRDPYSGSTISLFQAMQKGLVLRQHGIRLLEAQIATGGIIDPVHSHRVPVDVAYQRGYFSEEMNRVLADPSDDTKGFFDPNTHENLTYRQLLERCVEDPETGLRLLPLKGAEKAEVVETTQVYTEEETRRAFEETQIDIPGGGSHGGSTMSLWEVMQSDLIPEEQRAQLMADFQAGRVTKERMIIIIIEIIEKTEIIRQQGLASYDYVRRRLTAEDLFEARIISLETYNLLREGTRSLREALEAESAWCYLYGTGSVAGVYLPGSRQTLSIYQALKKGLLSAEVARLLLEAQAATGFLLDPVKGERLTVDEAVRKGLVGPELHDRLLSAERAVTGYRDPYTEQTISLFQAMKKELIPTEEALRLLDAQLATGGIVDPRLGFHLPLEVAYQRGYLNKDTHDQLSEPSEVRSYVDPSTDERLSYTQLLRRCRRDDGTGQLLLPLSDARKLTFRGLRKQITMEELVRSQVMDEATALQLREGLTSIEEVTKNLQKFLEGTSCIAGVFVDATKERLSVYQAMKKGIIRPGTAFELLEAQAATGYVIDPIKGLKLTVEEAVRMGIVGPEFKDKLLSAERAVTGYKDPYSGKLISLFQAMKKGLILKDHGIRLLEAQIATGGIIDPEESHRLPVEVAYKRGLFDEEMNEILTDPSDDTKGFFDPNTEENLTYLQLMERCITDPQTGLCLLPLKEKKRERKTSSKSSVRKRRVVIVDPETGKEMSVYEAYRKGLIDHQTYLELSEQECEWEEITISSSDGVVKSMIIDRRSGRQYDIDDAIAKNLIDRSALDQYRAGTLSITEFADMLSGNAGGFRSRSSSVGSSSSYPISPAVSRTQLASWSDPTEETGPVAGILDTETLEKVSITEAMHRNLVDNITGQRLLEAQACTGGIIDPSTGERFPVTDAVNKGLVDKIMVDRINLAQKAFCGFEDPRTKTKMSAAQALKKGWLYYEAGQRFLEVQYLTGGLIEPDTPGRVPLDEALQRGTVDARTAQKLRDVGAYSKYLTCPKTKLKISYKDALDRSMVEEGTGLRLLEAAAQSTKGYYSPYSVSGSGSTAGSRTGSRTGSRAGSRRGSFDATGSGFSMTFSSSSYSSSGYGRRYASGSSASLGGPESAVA

[6] = biological target: T3, cysteines in MDA-MB-231 and Ramos cells (Homo sapiens, UniProt Q2NL82); conditions: 200 μM, insitu, 231
T3 sequence (Q2NL82 1-804): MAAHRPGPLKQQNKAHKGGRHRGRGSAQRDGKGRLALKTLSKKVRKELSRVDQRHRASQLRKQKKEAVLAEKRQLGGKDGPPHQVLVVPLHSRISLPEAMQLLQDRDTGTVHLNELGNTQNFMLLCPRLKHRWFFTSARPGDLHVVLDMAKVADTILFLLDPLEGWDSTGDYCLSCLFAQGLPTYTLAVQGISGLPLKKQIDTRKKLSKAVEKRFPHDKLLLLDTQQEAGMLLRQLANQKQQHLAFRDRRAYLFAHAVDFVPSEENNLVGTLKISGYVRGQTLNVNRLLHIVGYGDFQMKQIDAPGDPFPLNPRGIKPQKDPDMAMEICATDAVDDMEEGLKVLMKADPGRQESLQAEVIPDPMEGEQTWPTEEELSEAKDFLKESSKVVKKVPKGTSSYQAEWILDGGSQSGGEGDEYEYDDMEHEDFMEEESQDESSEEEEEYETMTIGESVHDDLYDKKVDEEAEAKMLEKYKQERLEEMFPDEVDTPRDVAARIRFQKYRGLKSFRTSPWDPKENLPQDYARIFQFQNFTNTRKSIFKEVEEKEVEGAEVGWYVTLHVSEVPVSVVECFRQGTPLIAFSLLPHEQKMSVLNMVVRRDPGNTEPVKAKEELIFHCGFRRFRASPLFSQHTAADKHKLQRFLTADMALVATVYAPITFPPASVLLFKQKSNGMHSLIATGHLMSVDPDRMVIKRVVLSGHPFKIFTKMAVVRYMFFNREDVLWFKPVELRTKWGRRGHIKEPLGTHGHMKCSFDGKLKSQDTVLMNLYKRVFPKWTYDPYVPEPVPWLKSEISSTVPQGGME

[7] = biological target: T4, cysteines in MDA-MB-231 and Ramos cells (Homo sapiens, UniProt P51649); conditions: 200 μM, insitu
T4 sequence (P51649 48-535): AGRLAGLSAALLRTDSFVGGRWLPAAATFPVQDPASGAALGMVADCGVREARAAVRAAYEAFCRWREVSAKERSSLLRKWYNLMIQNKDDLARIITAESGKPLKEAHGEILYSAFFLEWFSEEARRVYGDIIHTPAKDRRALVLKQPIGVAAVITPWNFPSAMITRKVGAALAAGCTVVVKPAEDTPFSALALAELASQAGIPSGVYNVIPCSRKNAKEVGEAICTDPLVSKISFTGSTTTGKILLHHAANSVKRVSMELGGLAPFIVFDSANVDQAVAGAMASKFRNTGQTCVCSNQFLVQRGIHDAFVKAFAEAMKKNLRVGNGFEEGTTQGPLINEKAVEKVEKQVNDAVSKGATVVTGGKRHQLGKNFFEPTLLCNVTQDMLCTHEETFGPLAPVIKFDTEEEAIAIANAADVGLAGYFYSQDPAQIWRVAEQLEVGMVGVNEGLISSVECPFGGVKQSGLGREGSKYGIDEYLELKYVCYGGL

[8] = biological target: cysteines in MDA-MB-231 and Ramos cells (Homo sapiens, UniProt P53634); conditions: 200 μM, insitu, 231
[9] = biological target: T5, cysteines in MDA-MB-231 and Ramos cells (Homo sapiens, UniProt O43175); conditions: 200 μM, insitu
T5 sequence (O43175 1-533): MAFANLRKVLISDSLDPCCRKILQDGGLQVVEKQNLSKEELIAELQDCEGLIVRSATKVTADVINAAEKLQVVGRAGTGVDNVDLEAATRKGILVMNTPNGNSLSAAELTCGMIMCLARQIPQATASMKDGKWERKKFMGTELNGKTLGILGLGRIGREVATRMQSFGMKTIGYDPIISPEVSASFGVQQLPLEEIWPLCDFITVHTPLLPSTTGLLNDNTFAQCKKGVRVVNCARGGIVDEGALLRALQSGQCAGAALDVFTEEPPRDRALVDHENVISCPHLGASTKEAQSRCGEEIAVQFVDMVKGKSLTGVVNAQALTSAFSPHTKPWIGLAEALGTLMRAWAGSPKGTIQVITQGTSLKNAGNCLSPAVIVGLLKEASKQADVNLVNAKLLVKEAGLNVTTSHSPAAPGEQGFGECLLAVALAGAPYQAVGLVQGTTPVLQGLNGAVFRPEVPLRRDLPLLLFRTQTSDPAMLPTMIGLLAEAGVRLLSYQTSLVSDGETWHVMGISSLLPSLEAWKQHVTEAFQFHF

Cn1cc(S(=O)(=O)N2CCOCC2)cc1C(=O)NC(=O)CCl [compound 11]
isoTOP-ABPP ratio Q96C19_C172 ([1]; 100 μM in situ 231): 0.9
isoTOP-ABPP ratio Q5MNZ6_C63 ([2]; 100 μM in situ 231): 0.9
isoTOP-ABPP ratio, cysteine P09110_C381 ([3]; 100 μM in situ 231): 0.8
isoTOP-ABPP ratio P35658_C728 ([4]; 100 μM in situ 231): 0.8
isoTOP-ABPP ratio, cysteine Q15149_C4574 ([5]; 100 μM in situ 231): 1.1

C=CC(=O)Nc1cc(F)c(N2CCN(C(=O)OC(C)(C)C)CC2)c(F)c1 [compound 38]
isoTOP-ABPP ratio Q96C19_C172 ([1]; 200 μM, insitu, 231): 0.7
isoTOP-ABPP ratio P09110_C381 ([3]; 200 μM, insitu, 231): 0.8
isoTOP-ABPP ratio Q2NL82_C126 [6]: 0.9

CC1CCc2ccccc2N1C(=O)CCl (stereo not shown) [compound 45]
isoTOP-ABPP ratio Q5MNZ6_C63 ([2]; 200 μM, insitu, 231): 2.6
isoTOP-ABPP ratio P09110_C381 ([3]; 200 μM, insitu, 231): 1.2
isoTOP-ABPP ratio P35658_C728 ([4]; 200 μM, insitu, 231): 3.1
isoTOP-ABPP ratio Q2NL82_C126 [6]: 20.0
isoTOP-ABPP ratio P51649_C340 [7]; 231: 2.4

COc1ccc2c(c1)CCCN2C(=O)CCl [compound 2]
isoTOP-ABPP reactivity P53634_C258 CTSC [8]: 0.9
isoTOP-ABPP reactivity P35658_C728 NUP214 ([4]; 200 μM, insitu, 231): 3.9
isoTOP-ABPP reactivity Q2NL82_C126 TSR1 [6]: 20.0
isoTOP-ABPP reactivity O43175_C369 PHGDH [9]; 231: 20.0
isoTOP-ABPP reactivity P51649_C340 ALDH5A1 [7]; 231: 1.9

COc1cc2c(cc1OC)CN(C(=O)CCl)CC2 [compound 8]
isoTOP-ABPP reactivity Q5MNZ6_C63 WDR45L ([2]; 200 μM, insitu, 231): 20.0
isoTOP-ABPP reactivity P09110_C381 ACAA1 ([3]; 200 μM, insitu, 231): 0.8
isoTOP-ABPP reactivity P51649_C340 ALDH5A1 [7]; 231: 2.7

CC(C)CCOCCNC(=O)CCl [compound 27]
isoTOP-ABPP ratio Q2NL82_C126 [6]: 0.4
isoTOP-ABPP ratio Q15149_C4574 ([5]; 200 μM, insitu, 231): 1.3
isoTOP-ABPP ratio P51649_C340 [7]; 231: 0.9

O=C(CCl)N1CCN(S(=O)(=O)c2ccccc2F)CC1 [compound 10]
isoTOP-ABPP ratio Q96C19_C172 ([1]; 200 μM, insitu, 231): 2.4
isoTOP-ABPP ratio Q5MNZ6_C63 ([2]; 200 μM, insitu, 231): 3.6
isoTOP-ABPP ratio, cysteine P53634_C258 [8]: 5.5
isoTOP-ABPP ratio P35658_C728 ([4]; 200 μM, insitu, 231): 20.0
isoTOP-ABPP ratio, cysteine Q2NL82_C126 [6]: 4.9
isoTOP-ABPP ratio, cysteine Q15149_C4574 ([5]; 200 μM, insitu, 231): 2.2
isoTOP-ABPP ratio, cysteine O43175_C369 ([9]; ramos): 2.4
isoTOP-ABPP ratio P51649_C340 [7]; 231: 13.4
isoTOP-ABPP ratio P51649_C340 ([7]; ramos): 20.0

O=C(CCl)N1CCN(CC(=O)N2CCOCC2)CC1 [compound 29]
isoTOP-ABPP ratio Q96C19_C172 ([1]; 200 μM, insitu, ramos): 1.2
isoTOP-ABPP ratio P35658_C728 ([4]; 200 μM, insitu, ramos): 1.7
isoTOP-ABPP ratio O43175_C369 ([9]; ramos): 1.1
isoTOP-ABPP ratio P51649_C340 ([7]; ramos): 1.0

C=CC(=O)N(Cc1cccnc1)c1cc(C(F)(F)F)cc(C(F)(F)F)c1 [compound 31]
isoTOP-ABPP ratio Q96C19_C172 ([1]; 200 μM, insitu, 231): 1.6
isoTOP-ABPP ratio P09110_C381 ([3]; 200 μM, insitu, 231): 0.7
isoTOP-ABPP ratio P35658_C728 ([4]; 200 μM, insitu, 231): 0.7
isoTOP-ABPP ratio O43175_C369 [9]; 231: 20.0
isoTOP-ABPP ratio O43175_C369 ([9]; ramos): 20.0
isoTOP-ABPP ratio P51649_C340 ([7]; ramos): 1.0
